Results from PubChem BioAssay (NCI).
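Each compound was tested at five concentrations against cells in 96-well plates for 48 hours. GI50: concentration for 50% inhibition of growth. TGI marks complete inhibition of growth.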 Where a SMILES comes first, the peptide text is derived from it. [ ]: non-standard residue; d: D form. pGlu = O=C1CC[CH](C(=O)O)N1

Assays:
Test in all cases: DTP human tumour cell line panel, 48 h
A549 NSCLC = test system: A549 NSCLC
RPMI-8226 leukemia = test system: RPMI-8226 leukemia
T-47D breast = test system: T-47D breast
NCI-H226 lung = test system: NCI-H226 lung
OVCAR-5 ovarian = test system: OVCAR-5 ovarian
BT-549 breast = test system: BT-549 breast
MCF7 breast = test system: MCF7 breast
MOLT-4 leukemia = test system: MOLT-4 leukemia
NCI/ADR-RES ovarian = test system: NCI/ADR-RES ovarian
SF-539 CNS = test system: SF-539 CNS

SMILES | GI50 (A549 NSCLC) [µM] | TGI (A549 NSCLC) [µM] | GI50 (RPMI-8226 leukemia) [nM] | TGI (RPMI-8226 leukemia) [µM] | GI50 (T-47D breast) [µM] | TGI (T-47D breast) [µM] | GI50 (NCI-H226 lung) [µM] | TGI (NCI-H226 lung) [µM] | GI50 (OVCAR-5 ovarian) [µM] | TGI (OVCAR-5 ovarian) [µM] | GI50 (BT-549 breast) [µM] | TGI (BT-549 breast) [µM] | GI50 (MCF7 breast) [nM] | TGI (MCF7 breast) [µM] | GI50 (MOLT-4 leukemia) [µM] | TGI (MOLT-4 leukemia) [µM] | GI50 (NCI/ADR-RES ovarian) [µM] | TGI (NCI/ADR-RES ovarian) [µM] | GI50 (SF-539 CNS) [µM] | TGI (SF-539 CNS) [µM]
O=C1C(Cl)=C(Nc2cccc(F)c2)C(=O)N1Cc1ccc(Cl)cc1 | 1.73 | 16.9 | 502 | 14.2 | 3.57 | 27.7 | 0.188 | 0.852 | 4.58 | 22.4 | 0.841 | 13.4 | 1060 | 7.91 | 0.506 | > 100 | 0.426 | 5.61 | 1.03 | 4.04
O=c1[nH]c(=O)c2cn[nH]c2[nH]1 | > 100 | > 100 | > 100000 | > 100 | > 100 | > 100 | > 100 | > 100 | > 100 | > 100 | > 100 | > 100 | > 100000 | > 100 | > 100 | > 100 | > 100 | > 100 | > 100 | > 100
COc1cc(/C=C\c2cc(OC)c(OC)c(OC)c2)cc(NC(=O)/C=C/c2cc(OC)c(OC)c(OC)c2)c1OC | 4.49 | > 100 | 1360 | > 100 | 3.11 | > 100 | 50 | > 100 | > 100 | > 100 | 2.92 | > 100 | 3490 | > 100 | 3.15 | > 100 | 2.77 | > 100 | 7.58 | > 100
O=c1[nH]nnc2c1ncn2C1OC(CO)C(O)C1O (centres undefined) | 75.7 | > 100 | 6710 | > 100 | 38.8 | > 100 | 10.3 | > 100 | 74.9 | > 100 | > 100 | > 100 | 17300 | > 100 | 2.07 | 36 | 7.74 | > 100 | 14.5 | > 100
CCCCON(OC(=O)c1ccc2ccccc2c1)C(=O)c1ccccc1 | > 100 | > 100 | 74200 | > 100 | > 100 | > 100 | 74 | > 100 | > 100 | > 100 | 92.3 | > 100 | 60100 | > 100 | 29.2 | 68.4 | > 100 | > 100 | > 100 | > 100
O=C1C(Cl)=C(Nc2cccc(Cl)c2)C(=O)N1Cc1ccc(Cl)cc1 | 3.71 | 21 | 266 | 3.37 | 3.38 | 34 | 0.119 | 1.37 | 0.864 | 15.1 | 0.338 | 2.84 | 499 | 13.6 | 0.513 | > 100 | 0.298 | 3.28 | 0.196 | 2.37
CCNC(=O)C1CCCN1C(=O)C(CCCN=C(N)N)NC(=O)C(CC(C)C)NC(=O)C(CC(C)C)NC(=O)C(Cc1ccc(O)cc1)NC(=O)C(CO)NC(=O)C(Cc1c[nH]c2ccccc12)NC(=O)C(Cc1cnc[nH]1)NC(=O)C1CCC(=O)N1 (centres undefined) ([pGlu]HWSYLLRP-NHEt; configuration not given here) | > 100 | > 100 | 74300 | > 100 | > 100 | > 100 | > 100 | > 100 | > 100 | > 100 | > 100 | > 100 | > 100000 | > 100 | > 100 | > 100 | > 100 | > 100 | > 100 | > 100
Oc1c(-c2nnc(-c3ccccc3Cl)o2)sc2nnc(-c3ccccc3)c(-c3ccccc3)c12 | 4.31 | 61.5 | 2920 | > 100 | 4.78 | > 100 | 16.1 | > 100 | 7.48 | > 100 | 12.6 | > 100 | 3840 | > 100 | 3.88 | > 100 | 1.09 | > 100 | 4.45 | 70.4
C/C=C(\C)C(=O)NC1=CC[C@@]2(C)C(=CCC3C2CC[C@@]2(C)C3CC[C@@H]2C(C)N(C)C)C1=O (some centres undefined) | 4.99 | 23.4 | 1910 | 9.38 | 1.94 | 25.7 | 4.65 | 36.3 | 4.78 | 25.4 | 3.39 | 15.8 | 2790 | 14.2 | 0.843 | 6.43 | 6.44 | 42.5 | 1.62 | 3.22
O=C(CCCCCCNC(=O)c1cnc(N(c2ccccc2)c2ccccc2)nc1)NO | 6.12 | > 92.7 | 1290 | > 100 | 0.907 | 5.83 | 16.6 | > 91.4 | 3.14 | 26.1 | 12.5 | > 84.3 | 2990 | > 67.1 | 2.13 | > 100 | 14.4 | > 96.8 | 2.92 | 52.3
CC(=O)NC1C(OC[C@@H](CC(=O)N[C@@H](CC(=O)O)CC(=O)N[C@H](CC(=O)N[C@@H](CCCN)CC(=O)N[C@@H](CCCN)CC(=O)N[C@H](CC(N)=O)C(C)C)C(C)C)NC(=O)C[C@@H](N)C(C)C)OC(CO)C(O)C1O (some centres undefined) | > 100 | > 100 | > 100000 | > 100 | > 100 | > 100 | > 100 | > 100 | > 100 | > 100 | > 100 | > 100 | > 100000 | > 100 | > 100 | > 100 | > 100 | > 100 | > 100 | > 100
ClCc1cccc2c(CCl)cccc12 | 8.77 | 24 | 2000 | 7.41 | 1.81 | 10.5 | 12 | 30.6 | 12.7 | 27.9 | 3.99 | 16.7 | 871 | 7.54 | 3.98 | > 100 | 2.58 | 12.1 | 2.86 | 11.7
CN(CCO)CC[C@H](CSc1ccccc1)Nc1ccc(S(=O)(=O)NC(=O)c2ccc(N3CCC([C@@H](O)c4ccccc4-c4ccc(Cl)cc4)CC3)cc2)cc1S(=O)(=O)C(F)(F)F | > 100 | > 100 | 160 | 2.94 | 4.26 | 59.6 | 2.5 | 7.46 | 4.6 | > 50.4 | 2.69 | 11 | 2970 | 12.2 | 0.0719 | 1.11 | > 100 | > 100 | 2.67 | 8
CSC(=Nc1nnc(-c2ccc([N+](=O)[O-])cc2)s1)SC |  | > 100 |  | > 100 |  | > 100 |  | > 100 |  | > 100 |  | > 100 |  | > 100 |  | > 100 |  | > 100 |  | 44.5
COC(=O)C1CC23CCCN4CCC5(c6ccccc6N(C=O)C15CC2)C43 (centres undefined) |  | > 100 |  | > 100 |  | > 100 |  | > 100 |  | > 100 |  | > 100 |  | > 100 |  | > 100 |  | > 100 |  | > 100
COc1ccc(-c2nn(-c3cccc(Cl)c3)cc2-c2cc(-c3cccs3)[nH]c(=S)n2)cc1 | 2.29 | 16.5 | 2420 | 10.9 | 4.16 | 34.6 | 3.16 | 54.4 | 6.38 | > 100 | 3.18 | 15.9 | 3020 | 33.4 | 3.03 | 25.2 | 4.77 | 41.8 | 4.7 | 19.7
CCN1C(=O)N(CC)C2C1NN=c1s/c(=C\c3cccc(F)c3)c(=O)n12 (centres undefined) | 0.282 | > 100 | 119 | 7.78 | 17.4 | > 100 | 0.24 | > 100 | 0.556 | > 100 | 0.209 |  | 39.2 | > 100 | 0.327 | > 100 | 0.059 | > 100 | 0.0804 | 1.05
CCN(Cc1ccc(Cl)cc1)c1ccc(CO)c(Cl)c1 | 1.35 | 14.3 | 3270 | 32.9 | 0.196 | 1.25 | 0.063 | 0.198 | 0.258 | 2.04 | 5.02 | 19.4 | 292 | 6.43 | 13.5 | 43.4 | 5.59 | 20.9 | 11.9 | 26.7
